Measurements from US20240423915A1, “LIPIDS FOR USE IN LIPID NANOPARTICLES” (Acuitas Therapeutics, Inc., priority 2023, published 2024).

System: human IgG in mouse serum
Assay: Immunoglobulin G (IgG) mRNA in vivo evaluation using lipid nanoparticle compositions (human IgG ELISA of mouse serum)
Parameters: species or system CD-1/ICR mice
Details: LNP with cationic lipid/DSPC/cholesterol/PEG lipid, tail vein injection, mouse serum 24 hours after administration; for Serum IgG (μg/mL) @ 0.3 mg/kg: IgG mRNA 0.3 mg mRNA/kg; for Serum IgG (μg/mL) @ 1.0 mg/kg: IgG mRNA 1.0 mg mRNA/kg
Experimental: A lipid of Formula (I), DSPC, cholesterol and PEG-lipid of Formula (II) are solubilized in ethanol at a molar ratio of 50:10:38.5:1.5 or 47.5:10:40.7:1.8. Lipid nanoparticles (LNP) are prepared at a total lipid to mRNA weight ratio of approximately 10:1 to 40:1. Briefly, the mRNA is diluted to 0.2 mg/mL in 10 to 50 mM citrate buffer, pH 4 to 6 or 10 to 25 mM acetate buffer, pH 4 to 6. Syringe pumps are used to mix the ethanolic lipid solution with the mRNA aqueous solution at a ratio of about 1:5 to 1:3 (vol/vol) with total flow rates above 15 mL/min. The ethanol is then removed, and the external buffer replaced with PBS by dialysis. Finally, the lipid nanoparticles are filtered through a 0.2 μm pore sterile filter.
Studies are performed in 6-8-week-old CD-1/ICR mice (Charles River or Inotiv) according to guidelines established by an institutional animal care committee (ACC) and the Canadian Council on Animal Care (CCAC). Varying doses of mRNA-lipid nanoparticle are systemically administered by tail vein injection and animals euthanized at a specific time point (e.g., 24 hours) post-administration. The whole blood is collected, and the serum subsequentially separated by centrifuging the tubes of the whole blood at 2000×g for 10 minutes at 4° C. and stored at −80° C. until use for analysis.
For immunoglobulin G (IgG) ELISA (Life Diagnostics Human IgG ELISA kit), the serum samples are diluted at 100 to 20,000 folds with 1× diluent solution. 100 μL of diluted serum is dispensed into anti-human IgG coated 96-well plate in duplicate alongside human IgG standards and incubated in a plate shaker at 150 rpm at 25° C. for 45 minutes. The wells are washed 5 times with 1× wash solution using a plate washer (400 μL/well). 100 μL of HRP conjugate is added into each well and incubated in a plate shaker at the same condition above. The wells are washed 5 times again with 1× wash solution using a plate washer (400 μL/well). 100 μL of TMB reagent is added into each well and incubated in a plate shaker at the same condition above. The reaction is stopped by adding 100 μL of Stop solution to each well. The absorbance is read at 450 nm (A450) with a microplate reader. The amount of human IgG in mouse serum is determined by plotting A450 values for the assay standard against human IgG concentration.
Representative compounds of the disclosure shown in Table 2 were formulated using the following molar ratio: 50% cationic lipid/10% distearoylphosphatidylcholine (DSPC)/38.5% Cholesterol/1.5% PEG lipid 2-[2-(ω-methoxy(polyethyleneglycol2000)ethoxy]-N,N-ditetradecylacetamide) or 47.5% cationic lipid/10% DSPC/40.7% Cholesterol/1.8% PEG lipid. Relative activity was determined by measuring the amount of human IgG in mouse serum as described in Example 1. The activity was compared at a dose of 1.0 or 0.3 mg mRNA/kg and expressed as ng luciferase/g liver measured 4 hours after administration, as described in Example 1 or as μg IgG/mL serum measured 24 hours after administration, as described in Example 2. Compound numbers in Table 2 refer to the compound numbers of Table 1.

## CCCCCCCCCCN(CCCCCCCCCC)C(=O)CCCCCCCN(CCCCCO)CCCCCCCCCOC(=O)OC(CCCC)CCCC [Compound I-14, 9-((8-(didecylamino)-8-oxooctyl)(5-hydroxypentyl)amino)nonyl nonan-5-yl carbonate]
  Serum IgG (μg/mL) @ 0.3 mg/kg: 37.0 ± 18.5 µg/mL
  Serum IgG (μg/mL) @ 1.0 mg/kg: 280.8 ± 86.6 µg/mL

## CCCCCCCCCCC(CCCCCCCCCC)OC(=O)OCCCCCN(CCCCCO)CCCCCCCC(=O)N(CCCCCCCCCC)CCCCCCCCCC [Compound I-15, 5-((8-(didecylamino)-8-oxooctyl)(5-hydroxypentyl)amino)pentyl henicosan-11-yl carbonate]
  Serum IgG (μg/mL) @ 0.3 mg/kg: 7.8 ± 4.0 µg/mL

## CCCCCCCCCCOC(=O)OCCCCCCCCN(C)CCCCCCCC(=O)N(CCCCCCCCCC)CCCCCCCCCC [Compound I-2, decyl (8-((8-(didecylamino)-8-oxooctyl)(methyl)amino)octyl) carbonate]
  Serum IgG (μg/mL) @ 0.3 mg/kg: 22.3 ± 7.8 µg/mL
  Serum IgG (μg/mL) @ 1.0 mg/kg: 134.9 ± 26.6 µg/mL

## CCCCCCCCCCN(CCCCCCCCCC)C(=O)CCCCCCCN(CCCCCO)CCCCCCCCOC(=O)OCC(CCCC)CCCCCC (stereo not shown) [Compound I-12, 2-butyloctyl (8-((8-(didecylamino)-8-oxooctyl)(5-hydroxypentyl)amino)octyl) carbonate]
  Serum IgG (μg/mL) @ 0.3 mg/kg: 19.7 ± 6.8 µg/mL

## CCCCCCCCCCN(CCCCCCCCCC)C(=O)CCCCCCCN(CCCCCO)CCCCCCCCOC(=O)OCC(CC)CCCC (stereo not shown) [Compound I-11, 8-((8-(didecylamino)-8-oxooctyl)(5-hydroxypentyl)amino)octyl (2-ethylhexyl) carbonate]
  Serum IgG (μg/mL) @ 0.3 mg/kg: 39.6 ± 6.3 µg/mL

## CCCCCCCCCCN(CCCCCCCCCC)C(=O)CCCCCCCCC(CCCCCCCCC(=O)OCC(CCCC)CCCCCC)N(CCCCCCCCCC)C(=O)CCN(C)C (stereo not shown) [Compound I-8, 2-butyloctyl 10-(N-decyl-3-(dimethylamino)propanamido)-19-(didecylamino)-19-oxononadecanoate]
  Serum IgG (μg/mL) @ 0.3 mg/kg: 21.7 ± 4.3 µg/mL
  Serum IgG (μg/mL) @ 1.0 mg/kg: 232.4 ± 42.5 µg/mL

## CCCCCCCCCCCCN(CCCCCCCCCCCC)C(=O)CCCCCN(CCCCCO)CCCCCCCOC(=O)OC(CCCCCCCC)CCCCCCCC [Compound I-21, 7-((6-(didodecylamino)-6-oxohexyl)(5-hydroxypentyl)amino)heptyl heptadecan-9-yl carbonate]
  Serum IgG (μg/mL) @ 0.3 mg/kg: 9.7 ± 3.3 µg/mL

## CCCCCCCCC(CCCCCCCC)OC(=O)OCCCCCCCN(CCCCCO)CCCCCCCC(=O)N(CCCCCCCC)CCCCCCCC [Compound I-23, 7-((8-(dioctylamino)-8-oxooctyl)(5-hydroxypentyl)amino)heptyl heptadecan-9-yl carbonate]
  Serum IgG (μg/mL) @ 0.3 mg/kg: 34.8 ± 12.3 µg/mL

## CCCCCCCCCCN(CCCCCCCCCC)C(=O)CCCCCCCN(C)CCCCCCCCOC(=O)OC(CCCCCCC)CCCCCCC [Compound I-4, 8-((8-(didecylamino)-8-oxooctyl)(methyl)amino)octylpentadecan-8-yl carbonate]
  Serum IgG (μg/mL) @ 0.3 mg/kg: 8.5 ± 2.0 µg/mL
  Serum IgG (μg/mL) @ 1.0 mg/kg: 73.6 ± 15.6 µg/mL

## CCCCCCCCCCN(CCCCCCCCCC)C(=O)CCCCCCCCC(CCCCCCCCC(=O)OCC(CCCC)CCCCCC)N(CCCCCCCC)C(=O)CCCN1CCCC1 (stereo not shown) [Compound I-24, 2-butyloctyl 19-(didecylamino)-10-(n-octyl-4-(pyrrolidin-1-yl)butanamido)-19-oxononadecanoate]
  Serum IgG (μg/mL) @ 0.3 mg/kg: 25.1 ± 7.7 µg/mL

## CCCCCCCCCCCCN(CCCCCCCCCCCC)C(=O)CCCCCCCN(CCCCCO)CCCCCCCOC(=O)OC(CCCCCCCC)CCCCCCCC [Compound I-22, 7-((8-(didodecylamino)-8-oxooctyl)(5-hydroxypentyl)amino)heptyl heptadecan-9-yl carbonate]
  Serum IgG (μg/mL) @ 0.3 mg/kg: 22.8 ± 11.0 µg/mL

## CCCCCCCCCCOC(=O)OCCCCCCCCN(CCCCCO)CCCCCCCC(=O)N(CCCCCCCCCC)CCCCCCCCCC [Compound I-1, decyl (8-((8-(didecylamino)-8-oxooctyl)(5-hydroxypentyl)amino)octyl) carbonate]
  Serum IgG (μg/mL) @ 0.3 mg/kg: 15.6 ± 5.1 µg/mL
  Serum IgG (μg/mL) @ 1.0 mg/kg: 121.5 ± 33.1 µg/mL

## CCCCCCCCCCN(CCCCCCCCCC)C(=O)CCCCCCCN(CCCCCO)CCCCCCCCOC(=O)OCC(CCCCCC)CCCCCCCC (stereo not shown) [Compound I-19, 8-((8-(didecylamino)-8-oxooctyl)(5-hydroxypentyl)amino)octyl (2-hexyldecyl) carbonate]
  Serum IgG (μg/mL) @ 0.3 mg/kg: 25.1 ± 4.2 µg/mL
  Serum IgG (μg/mL) @ 1.0 mg/kg: 184.5 ± 40.2 µg/mL

## CCCCCCCCCCC(CCCCCCCCCC)OC(=O)OCCCCCCCCCN(CCCCCO)CCCCCCCC(=O)N(CCCCCCCCCC)CCCCCCCCCC [Compound I-13, 9-((8-(didecylamino)-8-oxooctyl)(5-hydroxypentyl)amino)nonyl henicosan-11-yl carbonate]
  Serum IgG (μg/mL) @ 0.3 mg/kg: 18.2 ± 3.3 µg/mL
  Serum IgG (μg/mL) @ 1.0 mg/kg: 143.2 ± 23.9 µg/mL

## CCCCCCCCCCN(CCCCCCCCCC)C(=O)CCCCCCCN(CCCCCO)CCCCCCCOC(=O)OC(CCCCCCCC)CCCCCCCC [Compound I-18, 7-((8-(didecylamino)-8-oxooctyl)(5-hydroxypentyl)amino)heptyl heptadecan-9-yl carbonate]
  Serum IgG (μg/mL) @ 0.3 mg/kg: 51.5 ± 9.5 µg/mL
  Serum IgG (μg/mL) @ 1.0 mg/kg: 290.2 ± 50.5 µg/mL

## CCCCCCCCCCN(CCCCCCCCCC)C(=O)CCCCCCCN(CCCCCO)CCCCCCCCCOC(=O)OC(CCCCCC)CCCCCC [Compound I-17, 9-((8-(didecylamino)-8-oxooctyl)(5-hydroxypentyl)amino)nonyl tridecan-7-yl carbonate]
  Serum IgG (μg/mL) @ 0.3 mg/kg: 20.1 ± 6.7 µg/mL

## CCCCCCCCCCN(CCCCCCCCCC)C(=O)CCCCCCCCC(CCCCCCCCC(=O)OCC(CCCC)CCCCCC)N(CCCCCCCCCC)C(=O)CCCN(C)C (stereo not shown) [Compound I-25, 2-butyloctyl 10-(n-decyl-4-(dimethylamino)butanamido)-19-(didecylamino)-19-oxononadecanoate]
  Serum IgG (μg/mL) @ 0.3 mg/kg: 9.3 ± 1.7 µg/mL
  Serum IgG (μg/mL) @ 1.0 mg/kg: 68.3 ± 13.4 µg/mL

## CCCCCCCCCCN(CCCCCCCCCC)C(=O)CCCCCCCN(CCCCCO)CCCCCCCCOC(=O)OC(CCCCCCC)CCCCCCC [Compound I-3, 8-((8-(didecylamino)-8-oxooctyl)(5-hydroxypentyl)amino)octylpentadecan-8-yl carbonate]
  Serum IgG (μg/mL) @ 0.3 mg/kg: 30.1 ± 2.1 µg/mL
  Serum IgG (μg/mL) @ 1.0 mg/kg: 173.3 ± 9.3 µg/mL

## CCCCCCCCCCN(CCCCCCCCCC)C(=O)CCCCCCCN(CCCCCO)CCCCCOC(=O)OC(CCCC)CCCC [Compound I-16, 5-((8-(didecylamino)-8-oxooctyl)(5-hydroxypentyl)amino)pentyl nonan-5-yl carbonate]
  Serum IgG (μg/mL) @ 0.3 mg/kg: 18.5 ± 2.7 µg/mL
  Serum IgG (μg/mL) @ 1.0 mg/kg: 75.4 ± 53.7 µg/mL

## CCCCCCCCC(CCCCCCCC)OC(=O)OCCCCCCCN(CCCCCO)CCCCCCCCCC(=O)N(CCCCCCCC)CCCCCCCC [Compound I-20, 7-((10-(dioctylamino)-10-oxodecyl)(5-hydroxypentyl)amino)heptyl heptadecan-9-yl carbonate]
  Serum IgG (μg/mL) @ 0.3 mg/kg: 51.4 ± 12.8 µg/mL
